In publication PMC6201930 (PLoS ONE, 2018):
Where “and” joins values, the source holds several entries; their conditions need not be identical. Equal values may be shown once. Read-outs that look alike come from different tables or passages of the source.

Tests used:
[1] = tested on: p53 R213* UGA premature termination codon in HDQ-P1 mammary carcinoma cells; assay: HDQ-p53UGA213 readthrough assay (full-length p53, MSD immunoassay); format: cell-based, human; conditions: for HDQ-p53UGA213 (Maxfold): maximum readthrough activity above background
Experimental: We utilized HDQ-P1 mammary carcinoma cells, which are homozygous for R213*, a UGA premature termination codon in the gene for the tumor suppressor protein p53 [30]. […] Western blot hybridization and Meso Scale Discovery (MSD) immunoassay detection of p53 were done as previously described. […] Cells (45K per well) were grown in 96-well plates and treated with compounds for 24 hours. […] Cells were lysed with 60 μl per well of lysis buffer (20 mM Tris-HCL, pH 7.5, 1 mM EGTA, 1 mM EDTA,150 mM Nacl, 0.5% Triton X100) for one hour at room temperature and 30 μl of lysate per well were transferred to the coated plate and incubated overnight at 4 °C. […] Plates were then washed three times with PBS-T and 30 μl of 0.25 μ/ml goat anti-rabbit IgG-Sulfo-tag antibody (MSD) in TBS-C was added and incubated for 1 hour at room temperature. Plates were then washed three times with PBS-T and 150 μl read buffer (MSD) was added. Plates were read immediately in a SECTOR S 600 (MSD).

[2] = tested on: fLuc mRNA harboring a UGA nonsense mutation at codon 190 (fLuc-190-NS); format: biochemical, rabbit
From the text: ThefLuc-190-NS assay is an in vitro rabbit reticulocyte lysate translation of an fLuc mRNA harboring a UGA nonsense mutation at codon 190 (fLuc-190-NS). It is believed that positively charged aminoglycosides are poorly taken up by cells, and we used this cell-free readthrough assay to eliminate the potential variable of cell uptake when measuring readthrough potency. […] Readthrough protein was detected using a HA-HIS MSD immunoassay described previously.
This cell-free translation assay used synthetic LUC mRNAs harboring an EMCV IRES and LUC codon 190-UGA premature stop codon prepared using the MegaScript in vitro transcription kit (Ambion). Translation reactions were done with the Rabbit Reticulocyte Lysate System (Promega) with 100 ng RNA and increasing concentrations of aminoglycosides. The amount of luminescence produced was determined after approximately 4 hours using a Viewlux CCD imager (Perkin-Elmer). Fold suppression over background was calculated as (aminoglycoside light units/PBS light units).

[3] = Neuromast toxicity assay (DASPEI staining); conditions: zebrafish, zebrafish embryos 5 dpf, neuromasts (hair cells), other: embryos exposed to the drug in 24-well plates
Experimental: (§3) All neuromast cytotoxicity assays were done at Biobide–BBD Biophenix SL (Gipuzkoa, Spain). […] Compounds were tested at 5 doses. After 24 hours of exposure embryos were incubated in DASPEI (2-(4-(dimethylamino)styryl) -N-Ethylpyridinium Iodide) for neuromast staining. Images of each embryo were taken and neuromasts counted. A compound was classified as ototoxic when the number of neuromasts in the treated group was less than that in the untreated control group (One Way ANOVA, multiple comparisons vs. vehicle).

[4] = tested on: tGFP-CFTR542X-HA-HIS construct (codon 542 UGA) in 293H cells; assay: tGFP-542X readthrough assay (HA-HIS MSD immunoassay); format: cell-based, human
[5] = Cytotoxicity in myoblasts; conditions: mouse, primary mouse myoblasts, Myoblast CC50, AVERAGE (S1 File)
From the text: (§1) When considering compounds for potential readthrough therapy it is important to monitor cellular and animal safety. In order to determine the most promising compounds to further evaluate in in vivo safety, we measured cytotoxicity in two different cell types. We used activated human peripheral blood mononuclear cells (PBMCs) (Table 2 and Fig 2D and 2E). PBMCs are a primary cell that when activated with phytohaemagglutinin (PHA) expand quickly and are commonly used as an in vitro surrogate for rapidly growing cells in the human body to evaluate cytotoxicity. Prior to advancing compounds into human studies, safety evaluation in rodents is performed. As an in vitro surrogate for rodent toxicity, we used primary mouse myoblasts.

primary mouse myoblasts = assay: Cytotoxicity in myoblasts; conditions: read-out: Myoblast CC50
From the text: as §1

[6] = tested on: activated human peripheral blood mononuclear cells (PBMCs); assay: Cytotoxicity in stimulated PBMCs (CellTitre-Glo ATP); conditions: read-out: Stimulated PBMC CC50
From the text: as §1
(§2) Frozen human Peripheral Blood Mononuclear Cells (PBMCs) were obtained from […] (Alameda, CA, Cat# PB003F) from a single donor. […] Plates were incubated at 37°C with 5% CO2 for 4 hours prior to compound treatment. Compounds were serially diluted and added to the plates. Plates were incubated at 37°C, 5% CO2 incubator, for 72 hours prior to determinations of ATP levels. Cell viability was determined using a chemiluminescent assay to monitor adenosine triphosphate (ATP) levels in live cells (CellTitre-Glo; CTG; Promega, Cat#G7571). Methods were performed per the manufacturer’s instructions.

[7] = as above; conditions: human, Stimulated PBMC CC50, AVERAGE (S1 File)
From the text: as §1, §2

[8] = tested on: zebrafish neuromasts (hair cells); assay: Neuromast toxicity assay (DASPEI staining)
Experimental: as §3

mouse cochlear explants = tested on: mouse cochlear explants; set-up: method as in PMID 24251786; conditions: obtained previously; cited from earlier work
[9] = concentration required to double the level of full-length p53 protein, average ± SD, at least three experiments, highest concentration 300 μM
[10] = individual experiments (S1 File)
[11] = individual experiments (S1 File), max fold
[12] = AVERAGE (S1 File), unit not given for EC5X
[13] = individual experiments (S1 File), unit not printed for EC5X (EC2X of the sheet in uM)
[14] = 293H cells, 24 hours, average ± SD
[15] = maximum readthrough above background, average ± SD
[16] = individual determinations (S1 File)

Row | SMILES | HDQ-p53UGA213 EC2X ([1]; AVERAGE (S1 File)) | HDQ-p53UGA213 max ([1]; AVERAGE (S1 File)) | HDQ-p53UGA213 EC2X [1, 9] | HDQ-p53UGA213 EC2X [1, 10] | HDQ-p53UGA213 max [1, 11] | HDQ-p53UGA213 (Maxfold) ([1]; average ± SD) | fLuc-190-NS EC2X ([2]; AVERAGE (S1 File)) | fLuc-190-NS MaxFold ([2]; AVERAGE (S1 File)) | fLuc-190-NS EC5X [2, 12] | fLuc-190-NS EC2X ([2]; cell-free, average ± SD) | fLuc-190-NS EC2X [2, 10] | fLuc-190-NS MaxFold [2, 10] | fLuc-190-NS EC5X [2, 13] | tGFP-542X EC2X [4, 14] | tGFP-542X EC2X ([4]; AVERAGE (S1 File)) | tGFP-542X Maxfold ([4]; AVERAGE (S1 File)) | tGFP-542X EC5X [4, 12] | tGFP-542X EC2X [4, 10] | tGFP-542X Maxfold [4, 10] | tGFP-542X EC5X [4, 13] | also measured
1 | CN[C@@H]1[C@@H](O)[C@@H](O[C@@H]2[C@@H](O)[C@H](O[C@H]3O[C@H]([C@@H](C)N)CC[C@H]3N)[C@@H](N)C[C@H]2N)OC[C@]1(C)O [Gentamicin C2, gentamicin C2] | 141.9 µM | 5.8 | 142 ± 86 µM | 34.99 µM and 16.61 µM and 97.73 µM and 112.3 µM and 133.88 µM and 91.16 µM and 121.67 µM and 256.3 µM and 179.64 µM and 255.57 µM and 260.59 µM | 4.1 and 15.8 and 4 and 3.2 and 5.2 and 3.9 and 2.4 and 15.7 and 3.5 and 3 | 6 ± 5 fold | 1.1 µM | 97.2 | 1.9 | 1.086 ± 0.763 µM | 1.97 µM and 0.62 µM and 0.67 µM | 84.91 and 97.65 and 109.15 | 2.76 and 1.44 and 1.41 | 266 ± 44 µM | 265.9 µM | 8.9 | 653.9 | 225 µM and 260 µM and 312.48 µM | 11 and 9 and 7.29 | 566 and 647 and 748.53 | HDQ-p53UGA213 EC2X ([1]; concentration required to double the level of full-length p53 protein, average ± SD, at least three experiments, highest concentration 300 μM, listed as C2): triple digit; fLuc-190-NS MaxFold ([2]; cell-free, average ± SD): 97 ± 12 fold; CC50 at 24 h ([3]; Neuromast CC50, AVERAGE (S1 File)): 2.8 µM; CC50 at 24 h ([3]; Neuromast CC50, individual determinations (S1 File)): 2.8 µM; tGFP-542X Maxfold [4, 15]: 9 ± 2 fold; CC50 [5]: 3780 µM; CC50 (primary mouse myoblasts; [16]): 6100 µM and 4310 µM and 911 µM; CC50 [6, 16]: 3800 µM and 566 µM; CC50 at 72 h [7]: 2180 µM
2 | C[C@@H](O)C1O[C@H](O[C@@H]2C(N)C[C@@H](NC(=O)[C@@H](O)CCN)[C@@H](O)C2O[C@@H]2O[C@H](CN)[C@H](O)C2O)[C@@H](N)C(O)[C@@H]1O (stereo partly shown) [NB84, reference compound] | 16.6 µM | 29.7 | 17 ± 5 µM | 20.31 µM and <15.63 µM and 17.59 µM and 8.82 µM and 19.52 µM | 15.6 and 52.2 and 25.2 and 30.9 and 25.4 and 29 | 30 ± 12 fold | 0.0453 µM | 180.8 | 0.1430 | 0.045 ± 0.011 µM | 0.0389 µM and 0.0393 µM and 0.0578 µM | 172.62 and 163.42 and 206.48 | 0.1461 and 0.1276 and 0.1554 | 38 ± 12 µM | 38.2 µM | 110.3 | 109.2 | 25 µM and 46 µM and 44 µM | 176 and 74 and 81 | 67 and 132 and 128 | CC50 ([8]; read-out: Neuromast (CC50), zebrafish embryos 5 dpf, 24 hours exposure, maximum of two measurements): 8 ± 0.1 µM; CC50 ([8]; read-out: Neuromast CC50, AVERAGE (S1 File)): 7.9 µM; CC50 ([8]; read-out: Neuromast CC50, individual determinations (S1 File)): 7.8 µM; tGFP-542X Maxfold [4, 15]: 110 ± 57 fold; CC50 (primary mouse myoblasts; AVERAGE (S1 File)): 279 µM; CC50 (primary mouse myoblasts; [16]): 411 µM and 147 µM; CC50 (mouse cochlear explants): 20 µM; CC50 ([6]; AVERAGE (S1 File)): 440 µM; CC50 [6, 16]: 536 µM and 1160 µM and 179 µM and 156 µM and 173 µM
